This is an account of results in US20110117627A1, “REGULATION OF APOPTOSIS BY NEURAL SPECIFIC SPLICE VARIANTS OF IG20” (The Board of Trustees of the University of Illinois, priority 2008, published 2011).

SMILES strings stand for the structures. “Also recorded” adds a separate entry of the source. Where a SMILES comes first, the peptide text is derived from it. The star is where a group is joined. Cbz = O=C(OCc1ccccc1)*; CH2F = FC*

Common to all, as to format: cell-based, human
The test system of assay [1] is SK-N-SH cells. Kind of assay: Caspase-8 inhibition, apoptosis by Annexin V-PE/7-AAD. Particulars: 40 μM and 80 μM for two days. The procedure:
FIG. 6. Down modulation of KIAA0358 or selective expression of IG20-SV4 enhances apoptosis through expression/activation of caspase-8 in SK-N-SH cells. (A) Effects of cycloheximide on expression/activation of caspase-8. Three days post-transduction with shRNA-expressing virus, SK-N-SH cells were treated with 10 μg/ml cycloheximde (a protein synthesis inhibitor) for two days. Whole cell lysates were subjected to western blot analysis. (B) Caspase-8 reporter assay. SK-N-SH cells were cotransfected with pGL4.17-caspase-8 promoter vector, pSV40-Renilla luciferase vector and pEYFP-C1/or pEYFP-IG20-SV4 using Lipofectamine2000, 48 hrs later, cells were collected and analyzed for luciferase activity with the Dual-Luciferase Reporter Assay System (Promega). (C) and (D) Effects of caspase-8 inhibition. Three days post-transduction with shRNA-expressing virus, SK-N-SH cells were treated with 40 μM and 80 μM of Z-1ETD-FMK (a caspase 8 inhibitor) for two days. Collected cells were either subjected to Annexin V-PE/7-AAD stain for FACS analysis (C) or western blot analysis (D). (C) Percentage apoptosis in cells transduced with different shRNAs in the presence or absence of the caspase inhibitor. The P-value was **P<0.01 for Z-IETD-FMK treated vs untreated. […] Representative data are from three independent experiments.
Caspase-8 inhibition. […]

Assay [2] concerns caspase-8. As to the kind of experiment: Caspase-8 inhibition, western blot. The settings on record: SK-N-SH cells, 40 μM and 80 μM. How it is done: (§1) FIG. 6. Down modulation of KIAA0358 or selective expression of IG20-SV4 enhances apoptosis through expression/activation of caspase-8 in SK-N-SH cells. (A) Effects of cycloheximide on expression/activation of caspase-8. Three days post-transduction with shRNA-expressing virus, SK-N-SH cells were treated with 10 μg/ml cycloheximde (a protein synthesis inhibitor) for two days. Whole cell lysates were subjected to western blot analysis. (B) Caspase-8 reporter assay. SK-N-SH cells were cotransfected with pGL4.17-caspase-8 promoter vector, pSV40-Renilla luciferase vector and pEYFP-C1/or pEYFP-IG20-SV4 using Lipofectamine2000, 48 hrs later, cells were collected and analyzed for luciferase activity with the Dual-Luciferase Reporter Assay System (Promega). (C) and (D) Effects of caspase-8 inhibition. Three days post-transduction with shRNA-expressing virus, SK-N-SH cells were treated with 40 μM and 80 μM of Z-1ETD-FMK (a caspase 8 inhibitor) for two days. […]
(§2) Western Blot Analysis. […] The protein content was determined using a dye-binding microassay (Bio-Rad), and after boiling the samples for 2 min in a 1× SDS protein sample buffer, 20 μg of protein per lane was loaded and separated on 10% SDS-polyacrylamide gel. […] Proteins were detected using an enhanced chemiluminescence plus western blotting detection system (Amersham, UK). […]
For orientation: Immunoblotting shows a protein as a band on a membrane.

Assay [3] relates to caspase-8. As to the kind of experiment: Cycloheximide treatment of transduced SK-N-SH cells, western blot of caspase-8. The settings on record: 10 μg/mL cycloheximide. The procedure:
as §1, with “(Promega).” for “(Promega). (C) and (D) Effects of caspase-8 inhibition. Three days post-transduction with shRNA-expressing virus, SK-N-SH cells were treated with 40 μM and 80 μM of Z-1ETD-FMK (a caspase 8 inhibitor) for two days.”
To determine whether the increased apoptosis induced utilizing 34+13L shRNA was due to modulation of the expression of caspase-8, the expression of caspase-8 transcripts was measured in SK-N-SH cells treated with the different combinations of siRNAs. […]
as §2

`CC[C@H](C)[C@H](NC(=O)OCc1ccccc1)C(=O)N[C@@H](CCC(=O)OC)C(=O)N[C@H](C(=O)N[C@@H](CC(=O)OC)C(=O)CF)[C@@H](C)O` [Z-IETD-FMK] (Cbz-IE(OMe)TD(OMe)-CH2F): in assay [1], the “apoptosis in cells treated with shRNA targeting 34E” value is “did not significantly affect apoptosis” and the “apoptotic effect caused by down-modulation of KIAA0358” value is listed as “significantly attenuated the apoptotic effect”. Besides, the “effect on caspase-8 expression (western blot)” value in assay [2] is recorded as “inhibitory effect”.

In the case of `C[C@@H]1C[C@@H]([C@H](O)CC2CC(=O)NC(=O)C2)C(=O)[C@@H](C)C1` [cycloheximide], the “expression of caspase-8 protein” value in assay [3] is on record as “inhibited the expression of caspase-8 protein; also recorded: the induced caspase-8 was inhibited”.
